Measured values from patent publication US20070041899A1, “Radiolabelled substrates” (priority 2003, published 2007).

What was measured:
P-glycoprotein = P-glycoprotein (Sus scrofa, UniProt K7GMM7); settings: pig
From the text: (§1) The animals (pig, Yorkshire Iandrace, 37.5 kg, n=2) were scanned under terminal aneasthesia (ketamine induced isoflurane aneasthesia) on different days. For both animals an arterial cannula was inserted in one of the femoral arteries.

[1] = Rate of metabolism of [^11C]loperamide (arterial blood sampling) in pig
From the text: as §1

Chain of P-glycoprotein (K7GMM7 1-1248): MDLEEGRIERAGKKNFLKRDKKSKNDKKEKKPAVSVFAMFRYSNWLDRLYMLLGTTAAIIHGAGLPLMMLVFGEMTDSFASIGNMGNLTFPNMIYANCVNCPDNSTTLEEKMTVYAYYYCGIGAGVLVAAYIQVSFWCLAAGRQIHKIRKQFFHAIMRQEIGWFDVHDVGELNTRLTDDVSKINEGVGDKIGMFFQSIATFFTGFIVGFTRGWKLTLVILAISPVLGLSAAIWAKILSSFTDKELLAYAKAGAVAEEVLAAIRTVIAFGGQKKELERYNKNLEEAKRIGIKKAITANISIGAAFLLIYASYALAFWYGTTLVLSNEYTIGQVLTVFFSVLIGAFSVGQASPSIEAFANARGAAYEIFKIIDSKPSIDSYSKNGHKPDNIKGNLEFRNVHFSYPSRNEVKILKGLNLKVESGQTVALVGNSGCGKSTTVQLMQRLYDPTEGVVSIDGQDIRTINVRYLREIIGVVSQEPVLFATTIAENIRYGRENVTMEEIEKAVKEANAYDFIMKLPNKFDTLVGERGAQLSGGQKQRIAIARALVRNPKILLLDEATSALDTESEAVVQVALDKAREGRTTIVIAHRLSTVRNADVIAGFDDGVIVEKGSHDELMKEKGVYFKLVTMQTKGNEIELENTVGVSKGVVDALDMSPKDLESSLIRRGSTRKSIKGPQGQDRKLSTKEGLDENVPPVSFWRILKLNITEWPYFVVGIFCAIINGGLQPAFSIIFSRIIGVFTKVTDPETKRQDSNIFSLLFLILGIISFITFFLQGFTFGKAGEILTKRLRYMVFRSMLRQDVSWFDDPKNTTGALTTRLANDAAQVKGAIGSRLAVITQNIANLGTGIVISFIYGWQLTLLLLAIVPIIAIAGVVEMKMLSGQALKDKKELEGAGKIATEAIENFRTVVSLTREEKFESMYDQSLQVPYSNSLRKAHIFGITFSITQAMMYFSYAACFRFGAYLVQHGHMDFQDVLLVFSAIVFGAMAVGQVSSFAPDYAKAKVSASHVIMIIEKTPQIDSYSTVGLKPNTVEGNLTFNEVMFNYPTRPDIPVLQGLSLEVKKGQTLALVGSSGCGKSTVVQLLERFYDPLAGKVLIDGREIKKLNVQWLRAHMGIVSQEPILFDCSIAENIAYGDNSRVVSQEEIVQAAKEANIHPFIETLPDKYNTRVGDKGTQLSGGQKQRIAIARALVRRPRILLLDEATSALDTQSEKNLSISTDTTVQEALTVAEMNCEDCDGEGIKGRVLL

Which results are given for `CN([11CH3])C(=O)C(CCN1CCC(O)(c2ccc(Cl)cc2)CC1)(c1ccccc1)c1ccccc1` [[^11C]loperamide, ^11C—N-methyl-(4-chlorophenyl)+hydroxy-N,N-dimethyl-alpha,alpha-diphenyl-1-piperidinebutyramide]?
Maximum increase of CNS penetration for the brain as a whole (P-glycoprotein; at a dose of 40-50 mg/kg Cyclosporin A i.v. 30 min prior): 7 fold; % injected dose/L (CNS penetration) (P-glycoprotein; i.v. 1 min bolus, baseline conditions, PET): below 1%; radioactive signal in the brain as measured with PET scanning (P-glycoprotein; i.v. various doses of cyclosporin A 30 min prior to injection): dose dependent increase; rate of metabolism: parent at 60 min post administration ([1]; at doses of CsA >10 mg/kg): approx. 80 % parent; rate of metabolism: parent at 60 min post administration ([1]; without CsA >10 mg/kg (before decrease)): approx. 50 % parent
